Several values for one entry are separate records, joined by “and”; a condition that tells them apart may be missing. Equal values may be shown once.
Assays:
[1] = system: COVID-19; conditions: human, in vivo
[2] = system: natural killer cell; conditions: in vitro; cited from earlier work
[3] = system: T-cell; conditions: in vitro; cited from earlier work
[4] = system: COVID-19; conditions: human, in vivo; remark: listed apart in the source
[5] = system: leukocytes; conditions: after penetrating leukocytes by endocytosis; cited from earlier work
[6] = system: immature DC; conditions: in vitro; cited from earlier work

Substance: Azoximer bromide [AZB]
- Body temperature normalisation (≤37° C.) [1]: all patients had a normal body temperature
- Day 15 OS score 1 (not hospitalized, no limitations on activities), % [1]: 1.3% and 1 (1.3) %
- Day 15 OS score 2 (not hospitalized, limitation on activities), % [1]: 35.1% and 27 (35.1) %
- Day 15 OS score 3 (hospitalized, not requiring supplemental oxygen), % [1]: 45.5% and 35 (45.5) %
- Day 15 OS score 4 (hospitalized, requiring supplemental oxygen), % [1]: 9 (11.7) %
- Day 15 OS score 5 (hospitalized, on noninvasive ventilation or high flow oxygen devices), % [1]: 3.9% and 3 (3.9) %
- Day 15 OS score 6 (hospitalized, on invasive mechanical ventilation or extracorporeal membrane oxygenation), % [1]: 2.6% and 2 (2.6) %
- Day 15 OS score 7 (death), % [1]: 0 (0.0) %
- Day 15 Ordinal Scale score, mean [1]: 2.90
- Day 28 Mortality: alive, % [1]: 77 (100.0) %
- Day 28 Mortality: dead, % [1]: 0 (0.0) %
- Duration of hospitalization, mean [1]: 19.32 days and 19.13^g days and 19.32^h days
- Duration of hospitalization, median [1]: 19.0 days and 19.0^c days
- Improvement probability (NEWS) [1]: > 80%
- Mean (SD) NEWS [1]: 1.08 (1.18)
- Mean C-reactive protein (CRP) [1]: 13.21 mg/L
- Mean oxygen saturation [1]: 96.90% and 96.98%
- Mean time to an OS score improving to ≤2 [1]: 15.9 days
- Mean time to vanishing signs of pneumonia [1]: 18.45 days
- Median C-reactive protein (CRP) [1]: 8.5 mg/L
- Number of patients requiring respiratory support (OS=4-6) [1]: 14 patients
- Patients with an OS score of 2 or 3, percent [1]: 93.5%
- Pneumonia presence, number of patients [1]: 18 patients
- Pneumonia presence, percent of patients [1]: 23.4%
- Probability of achieving a normal body temperature [1]: 90%
- Respiratory support requirement [1]: No patients required respiratory support
- SpO2 value of the one patient below the reference range [1]: 94%
- Natural killer cell degranulation [2]: increase natural killer cell degranulation
- T-cell proliferation [3]: induce T-cell proliferation
- Absolute number of ARI cases, control group versus main (AZB) group [4]: more than 10 times higher
- Afflicted by ARI, number [4]: 32
- Afflicted by ARI, percent [4]: 13.1%
- Afflicted by acute respiratory illness (ARI), percent [4]: 0.3%
- Cases of ARI [4]: 3 cases
- Cases of COVID-19 [4]: 1 case
- Confirmed diagnosis of COVID-19 (PCR or antibody test), number [4]: 2
- Confirmed diagnosis of COVID-19 (PCR or antibody test), percent [4]: 0.3%
- Confirmed diagnosis of COVID-19 (PCR test data), number [4]: 6
- Confirmed diagnosis of COVID-19 (PCR test data), percent [4]: 2.4%
- Number of ARI cases, control group versus main (AZB) group [4]: more than 30 times
- Participants who developed pneumonia, percent (reported ARI cases) [4]: 0%
- Intracellular hydrogen peroxide [5]: significant dose-dependent increases
- Immature DC expansion [6]: increase immature DC expansion

Reference: US20220347206A1 (NPO Petrovax Pharm, LLC, priority 2021, published 2022)
